These results are taken from US7824698B2, “Lyophilized formulations of Salinosporamide A” (Nereus Pharmaceuticals, Inc., priority 2007, dated 2010).

SMILES strings stand for the structures. In brackets after ≈: the same amount, converted by molar mass.

The nature of series [1]: Solubility and stability in tert-butanol and Kollidon-TBA vehicles by HPLC. It is filed as physicochemical. As to the method:
Salinosporamide A solubility was determined in 100% tert-butanol (TBA) and in TBA containing 3% (w/v) Kollidon 12 PF and 3% (w/v) Kollidon 17 PF, respectively. Both Kollidons can dissolve in TBA at approximately 4% (w/v). 3% Kollidon can serve as the bulking agent to support a lyophilization preparation. Salinosporamide A was added and saturated in the vehicles at ambient room temperature overnight. Salinosporamide A solutions were filtered and analyzed by HPLC to determine the solubility.

The nature of series [2]: Chemical stability of the API.
Series [3] can be described thus: Salinosporamide A in-situ phase solubility and stability in H2O-TBA. It counts as physicochemical. The conditions noted are these: for HPLC Assay (% Purity): room temp. How it is done:
Salinosporamide A in-situ phase solubility and stability were determined in 10, 20 and 30% H2O-TBA (v/v) solutions. Salinosporamide A was prepared at 2 mg/mL in TBA as a stock solution. HPLC water was spiked into the Salinosporamide A solution aliquot to make up the equivalent 10, 20 and 30% H2O-TBA solutions at room temperature. Each drug solution was mixed and immediately filtered. The filtrate was collected as time zero sample and analyzed by HPLC at real time to avoid drug degradation. The filtrate was subsequently sampled and filtered at 4, 24 and 48 hr to monitor drug stability at ambient room temperature.

`C[C@@]12OC(=O)[C@]1([C@@H](O)[C@@H]1C=CCCC1)NC(=O)[C@@H]2CCCl` [Salinosporamide A]: the solubility – broadly, how much of the substance goes into solution per volume – is 4900 µg/mL (≈ 15.6 mM) in series [1] (3% Kollidon 12 PF-TBA); 4200 µg/mL (≈ 13.4 mM) in series [1] (3% Kollidon 17 PF-TBA); 2000 µg/mL (≈ 6.37 mM) in series [1] (100% TBA, ambient room temperature). The stability in solution entry was “stable” in series [1] (3% Kollidon 12 PF-TBA and 3% Kollidon 17 PF-TBA, room temperature overnight); “stable” in series [1] (100% TBA, ambient room temperature overnight). Besides, in series [2] (neutral and basic pH values), the “stability in aqueous solution” value is reported as “labile”. For the same compound, the “time API is stable” value in series [2] (stored at −20° C. desiccated) is on record as “at least 12 months”. Further, the bulk solution stability result in series [3] (1 mg/mL in 10-30% H2O-TBA co-solvent systems, room temperature) was “stable”. For the same compound, the “HPLC Assay (% Purity)” value in series [3] (10% H2O-TBA, 0 hr) was found to be 100.0%; in series [3] (10% H2O-TBA, 4 hr) it was 99.5%; in series [3] (10% H2O-TBA, 24 hr), 99.8%; in series [3] (10% H2O-TBA, 48 hr), 99.7%; in series [3] (20% H2O-TBA, 0 hr), 100.0%; in series [3] (20% H2O-TBA, 4 hr) it was 99.8%. The “HPLC Assay (% Purity)” value in series [3] (20% H2O-TBA, 24 hr) is 99.8%; in series [3] (20% H2O-TBA, 48 hr) it was 99.7%; in series [3] (30% H2O-TBA, 0 hr), 100.0%; in series [3] (30% H2O-TBA, 4 hr) it was 99.8%; in series [3] (30% H2O-TBA, 24 hr), 99.5%; in series [3] (30% H2O-TBA, 48 hr) it was 99.3%.
